The source of these data is US5362629A, “Detection of immunosuppressants” (President and Fellows of Harvard College, priority 1991, dated 1994).

The subject of data set [1] is set of four target proteins (calcineurin-calmodulin) adsorbed on GFK-FK506. Kind of data set: Competitive binding / elution of target proteins from glutathione-Sepharose-immobilized GFK-FK506. More on the design: species or system bovine. The protocol: A competitive binding experiment was carried out with recombinant FKBP12 and cyclophilin A (Standaert et al., 1990, supra, Lui et al., 1990, Proc. Natl. Acad. Sci. 87:2304) and their respective drug complexes. After the set of four target proteins were adsorbed onto the glutathione Sepharose affinity matrix, elution was attempted with immunophilins, the drugs, or the immunophilin-drug complexes. The set of four proteins were eluted from glutathione-sepharoseimmobilized GFK-FK506 with both recombinant complexes. In contrast, these proteins were not eluted by free immunophilins or unbound drugs.
To further test the importance of divalent metal ions for interaction between immunophilin-drug complexes and target proteins, the adsorption experiment was performed in the presence of the Ca^2+ chelator EGTA.

In data set [2] the target is T1, calcineurin-Ca2+/calmodulin (Bos taurus, UniProt P48452+P63099).
T1 construct: Bovine brain calcineurin and calmodulin were purchased from Sigma Chemical; purchased Sigma Chemical (St. Louis, Mo.); also a gift from Dr. Claude B. Klee; host or cells: bovine brain
In words: Calcineurin phosphatase assay with para-nitrophenyl phosphate. Particulars: Ca2+ and calmodulin present. Type of data set: biochemical, bovine. The source says: The small para-nitrophenyl phosphate reagent presumably interacts with calcineurin nearly exclusively via active site residues, whereas the phosphopeptide, which is comprised of a sequence derived from the phosphorylation site on the RII subunit of cyclic AMP-dependent protein kinase (a calcineurin substrate) (Blumenthal et al., 1986, J. Biol. Chem 261:8140), is presumed to make extensive contact with the enzyme.

Data set [3] has as its target T2, calcineurin (Bos taurus, UniProt P48452+P63099).
T2 construct: Bovine brain calcineurin and calmodulin were purchased from Sigma Chemical; purchased Sigma Chemical (St. Louis, Mo.); also a gift from Dr. Claude B. Klee; host or cells: bovine brain
In words: Calcineurin phosphatase assay with 32P-phosphopeptide (RII subunit) substrate. Type of data set: biochemical, bovine. Particulars: in the presence or absence of calmodulin; Ca2+. The protocol: Calcineurin is known to be a Ca^2+, calmodulin-dependent protein phosphatase (Stewart et al., 1982, FEBS. Lett. 137:80). Using a phosphorylated peptide fragment from the regulatory subunit of cAMP-dependent kinase as a substrate, the phosphatase activity of the calcineurin was assayed in the presence of the immunophilins, the individual drugs, and their respective complexes with or without calmodulin.
Calcineurin phosphatase assays were carried out essentially as described previously (Manalan et al. 1983, Proc. Natl. Acad. Sci. USA 80:4291) with minor modifications. The substrate used was a synthetic peptide corresponding to the phosphorylation site of the RII subunit of cyclic AMP-dependent protein kinase […] (Sequence I.D. No. 1), which was phosphorylated with ^32 p-labeled ATP at the serine residue. The assay buffer consists of 40 mM TrisHCl (pH 7.5), 0.1 M NaCl, 6 mM MgCl2, 0.1 mM CaCl2, 0.1 mg/mL bovine serum albumin, and 0.5 mM dithiothreitol. The assay mixture (60 μl) contained 40 nM calcineurin, and 80 nM calmodulin (when present), and 2 μM phosphopeptide in addition to the assay buffer. […] Therefore, the drug solutions were prepared in DMSO as follows. DMSO stock solutions of the drugs were prepared (3000×final concentration) and then diluted 100×with the assay buffer. 2 μL was added to the incubation mixture giving a final concentration of DMSO of less than 0.04% in the final assay mixture. The incubations were carried out at 30° C. for 10 min before the reaction was stopped by addition of the stop solution (5% trichloroacetic acid, 0.1 M potassium phosphate) and loaded onto 0.5 ml Dowex AG 50W-X8 (200-800 mesh, Bio-Rad) columns. After the [^32 P]-inorganic phosphate was eluted from the column, it was mixed with 12 ml of ScintiVerse II (Fisher Scientific) and counted on a Beckman LS1801 Liquid Scintillation Systems. Bovine brain calcineurin and calmodulin were purchased from Sigma Chemical (St. Louis, Mo.). ^32 P-labeled phosphorylated peptide substrate, bovine brain calcineurin, and rabbit anti-calcineurin IgG were generous gifts from Dr. Claude B. Klee (National Cancer Institute, Department of Biochemistry). Goat-anti-rabbit IgG conjugated with alkaline phosphatase and the alkaline phosphatase substrates (BCIP and NBT) were obtained from Pierce (Rockford, ILL.). Glutathione Sepharose 4B was from Pharmacia LKB (Uppsala, Sweden). 506BD was prepared by Thomas J. Wandless and Patricia K. Somers in the Harvard laboratory.

Data set [4] deals with T-cell receptor-mediated signaling pathway. Particulars: cited from earlier work.
Data set [5] deals with proteins of Mr 61,000, 57,000, 17,000, and 15,000 from calf thymus (calcineurin A, calcineurin B, calmodulin). Kind of data set: Glutathione Sepharose adsorption of target proteins from tissue extracts by immunophilin-drug affinity matrices. Type of data set: binding, bovine. Particulars: calf thymus extract; Ca2+ and Mg2+ in incubation buffer. Here is the method:
Several factors were taken into account in the design of the first glutathione-Sepharose adsorption experiment. […] In addition, in some experiments, a homobifunctional cross-linking reagent, dimethyl 3,3'-dithiobispropionimidate (DTBP) (Wang et al. 1974, J. Biol. Chem. 249:8005) was added to the incubation mixture to retain target proteins whose affinity for immunophilin or immunophilin-drug complex was not sufficient to withstand the washes following adsorption of the complex to the solid phase.
Adsorption of calcineurin-calmodulin with GFK-FK506 using glutathione Sepharose was performed as follows. Crude tissue extracts, fresh bovine calf brain, thymus, or spleen (Research 87, Revere, MA), were homogenized (1:3 W/V) in 20 mM Tris HCl (pH 6.8), 0.25 mM NaCl, 2 mM β-mercaptoethanal, 0.02% NaN3, 1 mM PMSF, and 5% glycerol. The homogenate was centrifuged at 8,000×g for 4 h. The supernatant was separated and the pellet was resuspended in an equal volume of the same buffer. Centrifugation at 8,000 ×g for 4 h gave a second supernatant. The two supernatants were mixed (1:1 v/v) and centrifuged at 30,000×g for 45 min. The supernatant was then filtered through a 0.45 μm filter and kept at 4° C. before use.
The crude tissue extracts were pre-incubated with glutathione Sepharose (about 1:100 to 1:200 dilution of the sepharose) at 4° C. for 1-3 h to remove the endogenous glutathione binding proteins, including glutathione S-transferases. […] After incubation at 4° C. on a nutator for 1.5 h, 25 μL of 50% (V/V) glutathione Sepharose in buffer A was added and incubation was continued for an additional 0.5 to 2 h. The Sepharose beads were precipitated by centrifugation on a microcentrifuge at 5,000×g for 2 min. The glutathione Sepharose beads were washed three times with 0.5 mL buffer A containing 0.2% Triton X-100. The washed glutathione Sepharose was then resuspended in 25 μL of 2× SDS sample buffer, heated in boiling water for 3 min, and centrifuged for 2 min. The supernatant was subjected to SDS-PAGE followed by silver staining. […]

“Also recorded” adds a separate entry of the source.

T2 sequence (P63099 2-170 limits assumed, other chains not shown): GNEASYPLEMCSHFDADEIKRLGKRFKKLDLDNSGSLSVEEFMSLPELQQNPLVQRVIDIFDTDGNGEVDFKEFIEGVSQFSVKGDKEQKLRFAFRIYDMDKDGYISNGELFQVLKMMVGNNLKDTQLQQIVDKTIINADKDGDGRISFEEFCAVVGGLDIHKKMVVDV

On to `O=C(O)CN(CCOCCOCCN(CC(=O)O)CC(=O)O)CC(=O)O` [EGTA], for which, in data set [1], the “elution of the four target proteins from the immobilized immunophilin-drug matrix” value was “able to effectively elute; also recorded: capable of eluting”.
“cyclophilin A: recombinant human immunophilin which complexes with cyclosporine A”: the “effect on phosphatase activity of calcineurin towards para-nitrophenyl phosphate” value in data set [2] is “no effect”. For the same compound, the “effect on phosphatase activity of calcineurin towards the phosphopeptide substrate” value in data set [3] is “no effect”.
As for `CO[C@H]1C[C@@H]2CC[C@@H](C)[C@@](O)(O2)C(=O)C(=O)N2CCCC[C@H]2C(=O)O[C@H]([C@H](C)C[C@@H]2CC[C@@H](O)[C@H](OC)C2)CC(=O)[C@H](C)/C=C(\C)[C@@H](O)[C@@H](OC)C(=O)[C@H](C)C[C@H](C)/C=C/C=C/C=C/1C` [rapamycin], in data set [4] (previous observations), the “inhibition of TCR-mediated signaling” value is reported as “inhibits different, calcium-independent signaling pathways”. Also, in data set [2], the “effect on phosphatase activity of calcineurin towards para-nitrophenyl phosphate” value is on record as “no effect”. Moreover, in data set [3], the “effect on phosphatase activity of calcineurin towards the phosphopeptide substrate” value was “no effect”. Besides, the “retention/adsorption of the Mr 61,000, 57,000, 17,000 and 15,000 proteins by the affinity matrix” value (“retention/adsorption” below) in data set [5] is on record as “do not retain”.
On to “FKBP12: recombinant human immunophilin binding FK506 and rapamycin”, for which the “effect on phosphatase activity of calcineurin towards para-nitrophenyl phosphate” value in data set [2] was “no effect”. Also, the “effect on phosphatase activity of calcineurin towards the phosphopeptide substrate” value in data set [3] is “no effect”. Moreover, the “retention/adsorption” value in data set [5] is given as “do not retain”.
Take `C=CC[C@@H]1/C=C(\C)C[C@H](C)C[C@H](OC)[C@H]2O[C@@](O)(C(=O)C(=O)N3CCCC[C@H]3C(=O)O[C@H](/C(C)=C/[C@@H]3CC[C@@H](O)[C@H](OC)C3)[C@H](C)[C@@H](O)CC1=O)[C@H](C)C[C@@H]2OC` [FK506]: the “concentration needed to interfere with T-cell receptor-mediated signaling, relative to CsA” value in data set [4] (lower concentrations than CsA) is recorded as 100 fold. Besides, the “effect on phosphatase activity of calcineurin towards para-nitrophenyl phosphate” value in data set [2] is given as “no effect”. Moreover, the “effect on phosphatase activity of calcineurin towards the phosphopeptide substrate” value in data set [3] is “no effect”. The “retention/adsorption” value in data set [5] was “do not retain”.
